Assay [1] is described as follows: Binding affinity to glutathione assessed as typical half life.
Assay [2] is described as follows: Binding affinity to cysteine assessed as typical half life.
Assay [3] in a line: Binding affinity to cysteine assessed as typical half life at 1.4 nM.
Assay [4] is described as follows: Binding affinity to glutathione assessed as typical half life at 1.4 nM.

For the compound `COCCN1CCC(Cc2ccc(C(=O)NCc3cnc(C#N)nc3NCC(C)(C)C)cc2)CC1`, in assay [1], the T1/2 came to 7.3 h.
On to `COC(=O)C1=C(C#N)NC(C)=C(C(=O)OC(C)C)C1c1cccc([N+](=O)[O-])c1` (stereo not given), for which the T1/2 in assay [1] was 40 h; in assay [2], 2 h.
As for `CCCN1CCN(c2ccc(C(=O)NC3(C(=O)NCC#N)CCCCC3)cc2)CC1`, the T1/2 in assay [3] was under 10 h; in assay [4], 97 h.
